Here are results for ten compounds from patent US12492188B2, “1H-benzo[D]imidazole derivatives as TLR9 inhibitors for the treatment of fibrosis” (BRISTOL-MYERS SQUIBB COMPANY, priority 2020, dated 2025).

Where two headings read alike, the source gives them in different places. A value given as a limit tells only on which side of the number the result lay.

What all share (type): cell-based
Assay [1] deals with T1, human TLR9 (Homo sapiens, UniProt Q9NR96).
T1 construct: host or cells: HEK-Blue cells (HEK293-derived reporter line)
T1 sequence (Q9NR96 26-1032): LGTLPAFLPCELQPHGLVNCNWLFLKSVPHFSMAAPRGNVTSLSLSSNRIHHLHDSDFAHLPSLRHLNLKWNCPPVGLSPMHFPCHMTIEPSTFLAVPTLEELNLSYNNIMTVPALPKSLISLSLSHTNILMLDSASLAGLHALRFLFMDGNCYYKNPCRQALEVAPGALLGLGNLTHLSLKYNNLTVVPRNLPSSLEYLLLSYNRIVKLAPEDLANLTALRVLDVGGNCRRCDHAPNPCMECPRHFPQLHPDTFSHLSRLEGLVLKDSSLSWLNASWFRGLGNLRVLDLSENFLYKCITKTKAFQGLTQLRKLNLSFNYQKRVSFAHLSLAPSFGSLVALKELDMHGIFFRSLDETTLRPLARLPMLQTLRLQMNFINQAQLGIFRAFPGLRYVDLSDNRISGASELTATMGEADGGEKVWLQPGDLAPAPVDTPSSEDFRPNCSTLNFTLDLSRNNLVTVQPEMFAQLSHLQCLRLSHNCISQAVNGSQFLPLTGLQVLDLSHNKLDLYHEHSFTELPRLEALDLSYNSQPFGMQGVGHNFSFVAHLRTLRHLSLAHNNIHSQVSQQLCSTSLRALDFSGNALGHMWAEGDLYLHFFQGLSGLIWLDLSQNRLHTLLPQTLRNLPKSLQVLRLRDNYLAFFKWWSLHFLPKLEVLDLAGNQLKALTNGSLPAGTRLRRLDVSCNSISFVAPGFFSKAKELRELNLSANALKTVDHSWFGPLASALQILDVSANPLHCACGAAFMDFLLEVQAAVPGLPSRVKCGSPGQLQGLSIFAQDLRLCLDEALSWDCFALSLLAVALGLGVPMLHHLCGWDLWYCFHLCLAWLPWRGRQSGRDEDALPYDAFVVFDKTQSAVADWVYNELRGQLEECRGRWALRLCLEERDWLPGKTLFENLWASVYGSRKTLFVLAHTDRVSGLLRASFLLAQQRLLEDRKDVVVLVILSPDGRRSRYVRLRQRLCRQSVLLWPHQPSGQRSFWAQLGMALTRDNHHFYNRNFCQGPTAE
As to the kind of experiment: TLR9 inhibition reporter assay (HEK-Blue cells, secreted embryonic alkaline phosphatase reporter). In short, it runs like this:
(§1)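 HEK-Blue cells overexpressing the respective receptor, with an NF-κB/AP-1-driven SEAP reporter, were pre-treated with compound (0.05 nM–50 μM) for 30 min at room temperature. Stimulation used gardiquimod 7.5 μM (TLR7), R848 15.9 μM (TLR8) or ODN2006 5 nM (TLR9); SEAP was read after 22 h at 37 °C as percent inhibition.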
A general note: A reporter such as luciferase makes a cellular process visible.

The target in assay [2] is T2, human TLR7 (Homo sapiens, UniProt Q9NYK1).
T2 construct: host or cells: HEK-Blue cells (HEK293-derived reporter line)
T2 sequence (Q9NYK1 27-1049): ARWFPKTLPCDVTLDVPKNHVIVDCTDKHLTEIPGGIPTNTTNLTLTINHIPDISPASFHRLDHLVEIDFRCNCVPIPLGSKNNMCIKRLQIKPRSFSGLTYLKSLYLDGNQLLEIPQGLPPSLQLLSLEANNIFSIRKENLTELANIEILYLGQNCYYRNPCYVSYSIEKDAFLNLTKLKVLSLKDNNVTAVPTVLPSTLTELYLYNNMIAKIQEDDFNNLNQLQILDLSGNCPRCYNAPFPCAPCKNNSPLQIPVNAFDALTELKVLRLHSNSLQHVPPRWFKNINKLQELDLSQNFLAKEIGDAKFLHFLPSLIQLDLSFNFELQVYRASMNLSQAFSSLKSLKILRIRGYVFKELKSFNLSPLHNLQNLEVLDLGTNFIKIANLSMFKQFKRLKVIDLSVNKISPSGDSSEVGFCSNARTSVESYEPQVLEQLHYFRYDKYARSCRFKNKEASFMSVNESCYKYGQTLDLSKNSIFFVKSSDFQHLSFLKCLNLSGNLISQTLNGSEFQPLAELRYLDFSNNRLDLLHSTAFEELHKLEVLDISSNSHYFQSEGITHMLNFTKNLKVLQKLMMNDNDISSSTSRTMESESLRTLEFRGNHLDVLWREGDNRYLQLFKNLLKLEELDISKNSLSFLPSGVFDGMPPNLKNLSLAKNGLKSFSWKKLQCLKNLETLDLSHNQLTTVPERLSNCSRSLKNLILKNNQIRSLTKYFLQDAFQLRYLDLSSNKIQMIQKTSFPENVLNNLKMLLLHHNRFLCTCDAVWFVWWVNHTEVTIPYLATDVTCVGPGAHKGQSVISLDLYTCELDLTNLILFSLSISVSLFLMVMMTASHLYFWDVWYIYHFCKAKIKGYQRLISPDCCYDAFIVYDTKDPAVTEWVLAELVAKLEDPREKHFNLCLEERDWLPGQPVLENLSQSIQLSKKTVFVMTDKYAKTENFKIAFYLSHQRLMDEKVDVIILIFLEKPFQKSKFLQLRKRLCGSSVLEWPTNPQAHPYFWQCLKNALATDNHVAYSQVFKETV
As to the kind of experiment: TLR7 inhibition reporter assay (HEK-Blue cells, secreted embryonic alkaline phosphatase reporter). Conditions: HEK-Blue cells overexpressing human TLR7, stimulated with gardiquimod 7.5 μM; read-out: TLR 7 IC50. In short, it runs like this: as §1

For assay [3], the target named is T3, human TLR8 (Homo sapiens, UniProt Q9NR97).
T3 construct: host or cells: HEK-Blue cells (HEK293-derived reporter line)
T3 sequence (Q9NR97 27-1041): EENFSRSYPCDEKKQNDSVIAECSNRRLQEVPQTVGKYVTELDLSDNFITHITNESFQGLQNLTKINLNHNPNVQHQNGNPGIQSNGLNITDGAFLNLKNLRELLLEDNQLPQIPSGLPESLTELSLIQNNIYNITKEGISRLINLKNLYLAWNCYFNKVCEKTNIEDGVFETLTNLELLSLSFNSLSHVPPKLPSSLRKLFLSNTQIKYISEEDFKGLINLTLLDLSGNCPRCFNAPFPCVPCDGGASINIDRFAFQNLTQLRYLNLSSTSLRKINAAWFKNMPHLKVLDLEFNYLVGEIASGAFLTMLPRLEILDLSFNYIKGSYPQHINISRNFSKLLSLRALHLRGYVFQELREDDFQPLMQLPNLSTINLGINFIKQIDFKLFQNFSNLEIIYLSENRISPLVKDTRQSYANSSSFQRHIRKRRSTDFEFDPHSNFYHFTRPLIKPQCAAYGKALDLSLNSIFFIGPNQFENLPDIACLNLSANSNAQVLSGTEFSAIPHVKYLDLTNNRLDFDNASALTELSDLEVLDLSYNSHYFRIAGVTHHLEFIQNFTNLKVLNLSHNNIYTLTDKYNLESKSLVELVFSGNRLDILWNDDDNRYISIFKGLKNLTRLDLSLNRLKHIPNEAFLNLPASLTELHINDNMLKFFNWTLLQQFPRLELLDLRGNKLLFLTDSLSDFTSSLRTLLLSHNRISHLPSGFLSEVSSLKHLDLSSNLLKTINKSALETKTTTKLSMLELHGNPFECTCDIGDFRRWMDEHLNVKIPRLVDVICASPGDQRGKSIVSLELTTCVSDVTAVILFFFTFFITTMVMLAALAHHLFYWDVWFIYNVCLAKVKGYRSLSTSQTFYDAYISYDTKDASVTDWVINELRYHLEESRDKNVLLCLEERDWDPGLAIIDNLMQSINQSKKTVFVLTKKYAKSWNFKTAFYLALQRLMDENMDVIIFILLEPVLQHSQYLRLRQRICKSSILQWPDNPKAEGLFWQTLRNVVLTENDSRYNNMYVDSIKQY
The assay can be described thus: TLR8 inhibition reporter assay (HEK-Blue cells, secreted embryonic alkaline phosphatase reporter). Conditions: HEK-Blue cells overexpressing human TLR8, stimulated with R848 15.9 μM; read-out: TLR 8 IC50. In outline:
as §1

Setting [4] is: HEK-Blue cells overexpressing human TLR9, stimulated with ODN2006 5 nM, read-out: TLR 9 IC50.

For the compound `Cn1c(-c2ccc(S(C)(=O)=O)cc2)nc2c(F)c(C3CCN(C4CC5CCC(C4)N5C4CCOCC4)CC3)ccc21` (stereo not shown) [Example 197, 4-fluoro-1-methyl-2-(4-(methylsulfonyl)phenyl)-5-(1-(8-(tetrahydro-2H-pyran-4-yl)-8-azabicyclo[3.2.1]octan-3-yl)piperidin-4-yl)-1H-benzo[d]imidazole], the IC50 in assay [1] was 160 nM; in assay [1] (setting [4]), 155 nM; in assay [2], over 50 µM; in assay [3], over 50 µM.

`Cn1c(-c2ccc(S(C)(=O)=O)cc2)nc2c(F)c(C3CCN(C4CC5CCC(C4)N5C4CCOCC4)CC3)ccc21` (stereo not shown) [Example 198, 4-fluoro-1-methyl-2-(4-(methylsulfonyl)phenyl)-5-(1-(8-(tetrahydro-2H-pyran-4-yl)-8-azabicyclo[3.2.1]octan-3-yl)piperidin-4-yl)-1H-benzo[d]imidazole]: the IC50 in assay [1] was 57 nM; in assay [1] (setting [4]) it was 57 nM; in assay [2], over 50 µM; in assay [3] it was over 50 µM.

On to `CC(C)CN1CCC(N2CCC(c3cc(F)c4c(c3)nc(-c3ccc(S(C)(=O)=O)cc3)n4C)CC2)CC1` [Example 201, 7-fluoro-5-(1′-isobutyl-[1,4′-bipiperidin]-4-yl)-1-methyl-2-(4-(methylsulfonyl)phenyl)-1H-benzo[d]imidazole], for which the IC50 in assay [1] was 97 nM; in assay [1] (setting [4]), 97 nM; in assay [2], 14.4 µM; in assay [3], over 50 µM.

As for `Cn1c(-c2ccc(S(C)(=O)=O)cc2)nc2cc(C3CCN(C4CCN(C5CC5)CC4)CC3)cc(F)c21` [Example 202, 5-(1′-cyclopropyl-[1,4′-bipiperidin]-4-yl)-7-fluoro-1-methyl-2-(4-(methylsulfonyl)phenyl)-1H-benzo[d]imidazole], the IC50 in assay [1] was 500 nM; in assay [1] (setting [4]) it was 502 nM; in assay [2], over 50 µM; in assay [3], over 50 µM.

In the case of `Cn1c(-c2ccc(S(C)(=O)=O)cc2)nc2cc(C3CCN(C4CCN(CC5CC5)CC4)CC3)cc(F)c21` [Example 203, 5-(1′-(cyclopropylmethyl)-[1,4′-bipiperidin]-4-yl)-7-fluoro-1-methyl-2-(4-(methylsulfonyl)phenyl)-1H-benzo[d]imidazole], the IC50 in assay [1] was 110 nM; in assay [1] (setting [4]) it was 108 nM; in assay [2], 15.4 µM; in assay [3], over 50 µM.

In the case of `Cn1c(-c2ccc(S(C)(=O)=O)cc2)nc2cc(C3CCN(C4CCN(CC5COC5)CC4)CC3)cc(F)c21` [Example 204, 7-fluoro-1-methyl-2-(4-(methylsulfonyl)phenyl)-5-(1′-(oxetan-3-ylmethyl)-[1,4′-bipiperidin]-4-yl)-1H-benzo[d]imidazole], the IC50 in assay [1] is 780 nM; in assay [1] (setting [4]) it was 781 nM; in assay [2], over 50 µM; in assay [3], over 50 µM.

As for `Cn1c(-c2ccc(S(C)(=O)=O)cc2)nc2cc(C3CCN(C4CCN(C5CCC5)CC4)CC3)cc(F)c21` [Example 205, 5-(1′-cyclobutyl-[1,4′-bipiperidin]-4-yl)-7-fluoro-1-methyl-2-(4-(methylsulfonyl)phenyl)-1H-benzo[d]imidazole], the IC50 was 110 nM in assay [1], 114 nM in assay [1] (setting [4]), 21.3 µM in assay [2] and over 50 µM in assay [3].

As for `Cn1c(-c2ccc(S(C)(=O)=O)cc2)nc2cc(C3CCN(C4CCN(C5COC5)CC4)CC3)cc(F)c21` [Example 206, 7-fluoro-1-methyl-2-(4-(methylsulfonyl)phenyl)-5-(1′-(oxetan-3-yl)-[1,4′-bipiperidin]-4-yl)-1H-benzo[d]imidazole], the IC50 in assay [1] was 840 nM; in assay [1] (setting [4]), 840 nM; in assay [2], over 50 µM; in assay [3], over 50 µM.

`Cn1c(-c2ccc(S(C)(=O)=O)cc2)nc2cc(C3CCN(C4CCN(C5CCOCC5)CC4)CC3)cc(F)c21` [Example 207, 7-fluoro-1-methyl-2-(4-(methylsulfonyl)phenyl)-5-(1′-(tetrahydro-2H-pyran-4-yl)-[1,4′-bipiperidin]-4-yl)-1H-benzo[d]imidazole]: the IC50 in assay [1] was 110 nM; in assay [1] (setting [4]), 110 nM; in assay [2], 18.3 µM; in assay [3] it was over 50 µM.

Take `COCCN1CCC(N2CCC(c3cc(F)c4c(c3)nc(-c3ccc(S(C)(=O)=O)cc3)n4C)CC2)CC1` [Example 208, 7-fluoro-5-(1′-(2-methoxyethyl)-[1,4′-bipiperidin]-4-yl)-1-methyl-2-(4-(methylsulfonyl)phenyl)-1H-benzo[d]imidazole]: the IC50 was 940 nM in assay [1], 937 nM in assay [1] (setting [4]), over 50 µM in assay [2] and over 50 µM in assay [3].

As usually defined, the IC50 is the point on the concentration scale where inhibition reaches its midpoint.
